Data reported in patent US10137182B2, “Cancer vaccines and vaccination methods” (ImmunoCellular Therapeutics, Ltd., priority 2013, dated 2018).
Entries after “also recorded” stand apart in the source; their conditions may differ. Where two headings read alike, the source gives them in different places. Each block holds one molecule with its values, some of them ahead of it. Where no end group is shown, it is not given here.

Columns and labels:
[1] = test system: HLA-A2+ human ovarian cancer stem cells 1031CSC
[2] = test system: HLA-A2+ human ovarian cancer stem cells 882CSC
[3] = molecular target: HLA-A*0201 molecules (Homo sapiens, UniProt P04439, D140Y/D185E/D98H/E176V/E277Q/G131W/G231S/I119V/I121R/I166T/I218V/L300P/L318F/N151K/N90K/P208A/P217A/Q86G/Q94H/R138H/R169H/T345S); assay: T2 cell binding assay of HLA-A2 peptides (upregulation of HLA-A2 on T2 cells, MFI by flow cytometry); conditions: for binding affinity to HLA-A*0201 molecules / T2 cells (in words): peptide 75 μg/ml, overnight
[4] = Immunogenicity in vitro of A2 peptide epitopes (Table 1); conditions: A2 peptide epitope(s) of Exemplary Vaccine 1; no method given
[5] = test system: HLA-A2+ human ovarian cancer stem cells 882CSC; assay: Killing assay (DDAO-SE / cleaved caspase-3) with peptide-specific CTLs against 882CSC; conditions: CTLs induced by peptide-pulsed HLA-A2+ DC; target:effector 1:10, overnight
[6] = test system: HLA-A2+ human ovarian cancer stem cells 1031CSC; assay: Killing assay (DDAO-SE / cleaved caspase-3) with peptide-specific CTLs against 1031CSC; conditions: CTLs induced by peptide-pulsed HLA-A2+ DC; target:effector 1:10, overnight

Molecule: CSCC[C@H](NC(=O)[C@@H](N)C(C)C)C(=O)N[C@@H](C)C(=O)NCC(=O)N[C@H](C(=O)NCC(=O)N[C@@H](CO)C(=O)N1CCC[C@H]1C(=O)N[C@@H](Cc1ccc(O)cc1)C(=O)N[C@H](C(=O)O)C(C)C)C(C)C [HER2 p773]
cytotoxicity of peptide-specific CTLs against 1031CSC [1]: can efficiently recognize and lyse | cytotoxicity of peptide-specific CTLs against 882CSC [2]: can efficiently recognize and lyse

MFI index (relative binding affinity fluorescence index, FI) ([3]; T2 cells incubated overnight with peptide 75 μg/ml and β2-microglobulin, FI = MFI(peptide)−MFI(untreated cells)/MFI(untreated cells)): less than 1 | binding affinity to HLA-A*0201 molecules / T2 cells (in words) [3]: lower affinity binding
Molecule: EIWTHSYKV (listed as Homo sapiens) [FOLR1 p191]
binding affinity to HLA-A*0201 molecules / T2 cells (in words) ([3]; listed as FOLR1p191): low affinity; also recorded: lower binding capacity | Immunogenicity in vitro [4]: Yes

binding affinity to HLA-A*0201 molecules / T2 cells (in words) [3]: high affinity binding
Molecule: KVLEYVIKV (listed as Homo sapiens) [MAGE-A1 p278]
Immunogenicity in vitro [4]: Yes

Molecule: SLLFLLFSL (listed as Homo sapiens)
Immunogenicity in vitro [4]: Yes

Molecule: SLLMWITQC [NY-ESO-1 p157]
Immunogenicity in vitro [4]: Yes

Molecule: TLADFDPRV [EphA2 p883]
cytotoxicity of peptide-specific CTLs against 882CSC [5]: can efficiently recognize and lyse | cytotoxicity of peptide-specific CTLs against 1031CSC [6]: can efficiently recognize and lyse

binding affinity to HLA-A*0201 molecules / T2 cells (in words) [3]: high affinities | binding affinity to HLA-A*0201 molecules / T2 cells (in words) ([3]; listed as mesothelinp531): high affinity binding
Molecule: VLPLTVAEV (listed as Homo sapiens) [mesothelin p531]
Immunogenicity in vitro [4]: Yes

Molecule: WLPFGFILI [IL-13Rα2 p345]
cytotoxicity of peptide-specific CTLs against 882CSC [5]: can efficiently recognize and lyse | cytotoxicity of peptide-specific CTLs against 1031CSC [6]: can efficiently recognize and lyse
